Measurements: patent US20100267561A1, “HERBICIDAL PYRIDAZINONE DERIVATIVES” (priority 2007, published 2010)

Legend:
Test in all cases: Test E pre-/postemergence plant response
Assay type in all cases: in vivo
Conditions in all cases: scale 0 to 100
[1] = test system: black mustard (Brassica nigra)
Summary of the method: (§1)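 Steps: sow seeds; apply compound preemergence in a non-phytotoxic solvent/surfactant formulation; in parallel, spray the same formulation postemergence on 1- to 4-leaf plants (2–18 cm); hold 14–21 days in a greenhouse; rate visually vs controls, 0 = no effect, 100 = complete control.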

[2] = test system: common purslane (Portulaca oleracea)
Summary of the method: as §1

[3] = test system: Italian ryegrass (Lolium multiflorum)
Summary of the method: as §1

[4] = test system: purple nutsedge (Cyperus rotundus)
Summary of the method: as §1

[5] = test system: barnyardgrass (Echinochloa crus-galli)
Summary of the method: as §1

[6] = test system: broadleaf signalgrass (Brachiaria platyphylla)
Summary of the method: as §1

[7] = test system: naked crabgrass (Digitaria nuda)
Summary of the method: as §1

[8] = test system: pitted morningglory (Ipomoea lacunosa)
Summary of the method: as §1

[9] = test system: annual bluegrass (Poa annua)
Summary of the method: as §1

[10] = test system: goosegrass (Eleusine indica)
Summary of the method: as §1

[11] = test system: large crabgrass (Digitaria sanguinalis)
Summary of the method: as §1

[12] = test system: southern (S.) sandbur (Cenchrus echinatus)
Summary of the method: as §1

[13] = test system: bermudagrass (Cynodon dactylon)
Summary of the method: as §1

[14] = test system: guineagrass (Panicum maximum)
Summary of the method: as §1

[15] = test system: common groundsel (Senecio vulgaris)
Summary of the method: as §1

[16] = test system: dallisgrass (Paspalum dilatatum)
Summary of the method: as §1

[17] = test system: johnsongrass (Sorghum halepense)
Summary of the method: as §1

CCCc1cc(-c2ccc(Cl)cc2)nn1-c1c(O)cnn(C)c1=O [Compound 43]
Plant response rating, Mustard, Black ([1]; 16 g ai/ha, Preemergence): 0
Plant response rating, Mustard, Black ([1]; 31 g ai/ha, Preemergence): 0
Plant response rating, Mustard, Black ([1]; 62 g ai/ha, Preemergence): 0
Plant response rating, Mustard, Black ([1]; Postemergence, 8 g ai/ha): 0
Plant response rating, Mustard, Black ([1]; Postemergence, 16 g ai/ha): 0
Plant response rating, Mustard, Black ([1]; Postemergence, 31 g ai/ha): 0
Plant response rating, Mustard, Black ([1]; Postemergence, 62 g ai/ha): 0
Plant response rating, Purslane ([2]; 16 g ai/ha, Preemergence): 0
Plant response rating, Purslane ([2]; 31 g ai/ha, Preemergence): 0
Plant response rating, Purslane ([2]; 62 g ai/ha, Preemergence): 0
Plant response rating, Purslane ([2]; Postemergence, 8 g ai/ha): 0
Plant response rating, Purslane ([2]; Postemergence, 16 g ai/ha): 0
Plant response rating, Purslane ([2]; Postemergence, 62 g ai/ha): 0
Plant response rating, Ryegrass, Italian ([3]; 16 g ai/ha, Preemergence): 90
Plant response rating, Ryegrass, Italian ([3]; 31 g ai/ha, Preemergence): 90
Plant response rating, Ryegrass, Italian ([3]; 62 g ai/ha, Preemergence): 90
Plant response rating, Ryegrass, Italian ([3]; Postemergence, 8 g ai/ha): 50
Plant response rating, Ryegrass, Italian ([3]; Postemergence, 16 g ai/ha): 80
Plant response rating, Ryegrass, Italian ([3]; Postemergence, 31 g ai/ha): 100
Plant response rating, Ryegrass, Italian ([3]; Postemergence, 62 g ai/ha): 100
Plant response rating, Nutsedge, Purple ([4]; 16 g ai/ha, Preemergence): 0
Plant response rating, Nutsedge, Purple ([4]; 31 g ai/ha, Preemergence): 0
Plant response rating, Nutsedge, Purple ([4]; 62 g ai/ha, Preemergence): 75
Plant response rating, Nutsedge, Purple ([4]; Postemergence, 8 g ai/ha): 0
Plant response rating, Nutsedge, Purple ([4]; Postemergence, 16 g ai/ha): 0
Plant response rating, Nutsedge, Purple ([4]; Postemergence, 31 g ai/ha): 0
Plant response rating, Nutsedge, Purple ([4]; Postemergence, 62 g ai/ha): 0
Plant response rating, Barnyardgrass ([5]; 16 g ai/ha, Preemergence): 50
Plant response rating, Barnyardgrass ([5]; 31 g ai/ha, Preemergence): 100
Plant response rating, Barnyardgrass ([5]; 62 g ai/ha, Preemergence): 100
Plant response rating, Barnyardgrass ([5]; Postemergence, 8 g ai/ha): 100
Plant response rating, Barnyardgrass ([5]; Postemergence, 16 g ai/ha): 100
Plant response rating, Barnyardgrass ([5]; Postemergence, 31 g ai/ha): 100
Plant response rating, Barnyardgrass ([5]; Postemergence, 62 g ai/ha): 100
Plant response rating, Signalgrass ([6]; 16 g ai/ha, Preemergence): 60
Plant response rating, Signalgrass ([6]; 31 g ai/ha, Preemergence): 100
Plant response rating, Signalgrass ([6]; Postemergence, 8 g ai/ha): 80
Plant response rating, Signalgrass ([6]; Postemergence, 16 g ai/ha): 80
Plant response rating, Signalgrass ([6]; Postemergence, 31 g ai/ha): 95
Plant response rating, Signalgrass ([6]; Postemergence, 62 g ai/ha): 98
Plant response rating, Crabgrass, Naked ([7]; 16 g ai/ha, Preemergence): 35
Plant response rating, Crabgrass, Naked ([7]; 31 g ai/ha, Preemergence): 35
Plant response rating, Crabgrass, Naked ([7]; 62 g ai/ha, Preemergence): 75
Plant response rating, Crabgrass, Naked ([7]; Postemergence, 8 g ai/ha): 65
Plant response rating, Crabgrass, Naked ([7]; Postemergence, 16 g ai/ha): 65
Plant response rating, Crabgrass, Naked ([7]; Postemergence, 62 g ai/ha): 100
Plant response rating, Morningglory ([8]; 16 g ai/ha, Preemergence): 0
Plant response rating, Morningglory ([8]; 31 g ai/ha, Preemergence): 20
Plant response rating, Morningglory ([8]; 62 g ai/ha, Preemergence): 30
Plant response rating, Morningglory ([8]; Postemergence, 8 g ai/ha): 0
Plant response rating, Morningglory ([8]; Postemergence, 16 g ai/ha): 0
Plant response rating, Morningglory ([8]; Postemergence, 31 g ai/ha): 0
Plant response rating, Morningglory ([8]; Postemergence, 62 g ai/ha): 0
Plant response rating, Bluegrass ([9]; 16 g ai/ha, Preemergence): 0
Plant response rating, Bluegrass ([9]; 31 g ai/ha, Preemergence): 0
Plant response rating, Bluegrass ([9]; 62 g ai/ha, Preemergence): 0
Plant response rating, Bluegrass ([9]; Postemergence, 8 g ai/ha): 0
Plant response rating, Bluegrass ([9]; Postemergence, 16 g ai/ha): 0
Plant response rating, Bluegrass ([9]; Postemergence, 31 g ai/ha): 0
Plant response rating, Bluegrass ([9]; Postemergence, 62 g ai/ha): 0
Plant response rating, Goosegrass ([10]; 16 g ai/ha, Preemergence): 65
Plant response rating, Goosegrass ([10]; 31 g ai/ha, Preemergence): 95
Plant response rating, Goosegrass ([10]; 62 g ai/ha, Preemergence): 98
Plant response rating, Goosegrass ([10]; Postemergence, 8 g ai/ha): 20
Plant response rating, Goosegrass ([10]; Postemergence, 16 g ai/ha): 75
Plant response rating, Goosegrass ([10]; Postemergence, 31 g ai/ha): 75
Plant response rating, Goosegrass ([10]; Postemergence, 62 g ai/ha): 90
Plant response rating, Crabgrass, Large ([11]; 16 g ai/ha, Preemergence): 0
Plant response rating, Crabgrass, Large ([11]; 31 g ai/ha, Preemergence): 70
Plant response rating, Crabgrass, Large ([11]; 62 g ai/ha, Preemergence): 80
Plant response rating, Crabgrass, Large ([11]; Postemergence, 8 g ai/ha): 30
Plant response rating, Crabgrass, Large ([11]; Postemergence, 16 g ai/ha): 60
Plant response rating, Crabgrass, Large ([11]; Postemergence, 31 g ai/ha): 80
Plant response rating, Crabgrass, Large ([11]; Postemergence, 62 g ai/ha): 80
Plant response rating, Sandbur, S. ([12]; 16 g ai/ha, Preemergence): 60
Plant response rating, Sandbur, S. ([12]; 31 g ai/ha, Preemergence): 75
Plant response rating, Sandbur, S. ([12]; 62 g ai/ha, Preemergence): 98
Plant response rating, Sandbur, S. ([12]; Postemergence, 8 g ai/ha): 80
Plant response rating, Sandbur, S. ([12]; Postemergence, 16 g ai/ha): 95
Plant response rating, Sandbur, S. ([12]; Postemergence, 31 g ai/ha): 98
Plant response rating, Sandbur, S. ([12]; Postemergence, 62 g ai/ha): 100
Plant response rating, Bermudagrass ([13]; 16 g ai/ha, Preemergence): 30
Plant response rating, Bermudagrass ([13]; 31 g ai/ha, Preemergence): 70
Plant response rating, Bermudagrass ([13]; 62 g ai/ha, Preemergence): 85
Plant response rating, Bermudagrass ([13]; Postemergence, 8 g ai/ha): 0
Plant response rating, Bermudagrass ([13]; Postemergence, 16 g ai/ha): 20
Plant response rating, Bermudagrass ([13]; Postemergence, 31 g ai/ha): 20
Plant response rating, Bermudagrass ([13]; Postemergence, 62 g ai/ha): 20
Plant response rating, Guineagrass ([14]; 16 g ai/ha, Preemergence): 95
Plant response rating, Guineagrass ([14]; 31 g ai/ha, Preemergence): 100
Plant response rating, Guineagrass ([14]; 62 g ai/ha, Preemergence): 100
Plant response rating, Guineagrass ([14]; Postemergence, 8 g ai/ha): 100
Plant response rating, Guineagrass ([14]; Postemergence, 16 g ai/ha): 100
Plant response rating, Guineagrass ([14]; Postemergence, 31 g ai/ha): 100
Plant response rating, Guineagrass ([14]; Postemergence, 62 g ai/ha): 100
Plant response rating, Groundsel ([15]; 16 g ai/ha, Preemergence): 0
Plant response rating, Groundsel ([15]; 31 g ai/ha, Preemergence): 0
Plant response rating, Groundsel ([15]; 62 g ai/ha, Preemergence): 0
Plant response rating, Groundsel ([15]; Postemergence, 8 g ai/ha): 0
Plant response rating, Groundsel ([15]; Postemergence, 16 g ai/ha): 0
Plant response rating, Groundsel ([15]; Postemergence, 31 g ai/ha): 0
Plant response rating, Groundsel ([15]; Postemergence, 62 g ai/ha): 0
Plant response rating, Dallisgrass ([16]; 16 g ai/ha, Preemergence): 40
Plant response rating, Dallisgrass ([16]; 31 g ai/ha, Preemergence): 80
Plant response rating, Dallisgrass ([16]; 62 g ai/ha, Preemergence): 90
Plant response rating, Dallisgrass ([16]; Postemergence, 8 g ai/ha): 0
Plant response rating, Dallisgrass ([16]; Postemergence, 31 g ai/ha): 20
Plant response rating, Dallisgrass ([16]; Postemergence, 62 g ai/ha): 50
Plant response rating, Johnsongrass ([17]; 16 g ai/ha, Preemergence): 0
Plant response rating, Johnsongrass ([17]; 31 g ai/ha, Preemergence): 50
Plant response rating, Johnsongrass ([17]; 62 g ai/ha, Preemergence): 60
Plant response rating, Johnsongrass ([17]; Postemergence, 8 g ai/ha): 15
Plant response rating, Johnsongrass ([17]; Postemergence, 16 g ai/ha): 25
Plant response rating, Johnsongrass ([17]; Postemergence, 31 g ai/ha): 65
